From the NIST ThermoML archive (doi:10.1021/je900689m)

Assays:
[1] = xn = mol fraction of the nth substance listed; conditions: 101 kPa, Liquid; for viscosity: Capillary tube (Ostwald / Ubbelohde) method
[2] = 101 kPa, Liquid; for viscosity: Capillary tube (Ostwald / Ubbelohde) method

c1ccccc1 [benzene] + CCOC=O
[1], x2 = 0
Conditions	mass density [kg/m3]	speed of sound [m/s]	viscosity [mPa·s]
303.15 K	867.6	1276	0.569
308.15 K	863.2	1252	0.534
313.15 K	858.9	1228	0.497

CCOC=O [ethyl methanoate]
[2]
Conditions	mass density [kg/m3]	speed of sound [m/s]	viscosity [mPa·s]
303.15 K	907.8	1092	0.373
308.15 K	902.6	1072	0.345
313.15 K	897.1	1052	0.324

c1ccccc1 [benzene]
[2]
Conditions	mass density [kg/m3]	speed of sound [m/s]	viscosity [mPa·s]
303.15 K	867.6	1276	0.569
308.15 K	863.2	1252	0.534
313.15 K	858.9	1228	0.497

CC(C)Cc1ccccc1 [(2-methylpropyl)benzene] + CCOC=O
[1]
Conditions	mass density, 303.15 K [kg/m3]	mass density, 308.15 K [kg/m3]	mass density, 313.15 K [kg/m3]	speed of sound, 303.15 K [m/s]	speed of sound, 308.15 K [m/s]	speed of sound, 313.15 K [m/s]	viscosity, 303.15 K [mPa·s]	viscosity, 308.15 K [mPa·s]	viscosity, 313.15 K [mPa·s]
x2 = 0	844.4	841.1	837.6	1268	1252	1236	0.905	0.848	0.784
x2 = 0.1772	849.5	845.8	842.1	1248	1228	1208	0.788	0.726	0.666
x2 = 0.3217	854.9	851	847	1224	1204	1184	0.699	0.641	0.591
x2 = 0.4514	860.8	856.8	852.6	1200	1180	1160	0.625	0.573	0.529
x2 = 0.5631	866.8	862.7	858.3	1180	1160	1140	0.569	0.522	0.48
x2 = 0.6604	873.3	868.8	864.3	1164	1144	1124	0.52	0.479	0.442
x2 = 0.7444	879.7	875	870.3	1148	1128	1108	0.481	0.445	0.413
x2 = 0.8191	886.3	881.5	876.6	1132	1112	1092	0.45	0.415	0.384
x2 = 0.8852	893.1	888	883	1120	1100	1080	0.418	0.388	0.362
x2 = 0.9461	900.5	895.3	890	1104	1084	1064	0.394	0.369	0.347

CCOC=O [ethyl methanoate] + CC(C)Cc1ccccc1
[1], x1 = 1
Conditions	mass density [kg/m3]	speed of sound [m/s]	viscosity [mPa·s]
303.15 K	907.8	1092	0.373
308.15 K	902.6	1072	0.345
313.15 K	897.1	1052	0.324

CCCCc1ccccc1 [butylbenzene]
[2]
Conditions	mass density [kg/m3]	speed of sound [m/s]	viscosity [mPa·s]
303.15 K	851.3	1308	0.901
308.15 K	848	1292	0.844
313.15 K	844.6	1276	0.787

CC(C)c1ccccc1 [isopropylbenzene] + CCOC=O
[1]
Conditions	mass density, 303.15 K [kg/m3]	mass density, 308.15 K [kg/m3]	mass density, 313.15 K [kg/m3]	speed of sound, 303.15 K [m/s]	speed of sound, 308.15 K [m/s]	speed of sound, 313.15 K [m/s]	viscosity, 303.15 K [mPa·s]	viscosity, 308.15 K [mPa·s]	viscosity, 313.15 K [mPa·s]
x2 = 0	852.7	849	845.4	1280	1264	1248	0.69	0.651	0.611
x2 = 0.1603	857	853.2	849.4	1252	1240	1228	0.63	0.585	0.544
x2 = 0.3007	861.7	857.7	853.7	1228	1216	1200	0.577	0.537	0.499
x2 = 0.4234	866.5	862.4	858.3	1204	1192	1176	0.534	0.497	0.46
x2 = 0.5352	871.9	867.7	863.3	1180	1168	1152	0.5	0.463	0.431
x2 = 0.633	877.4	872.9	868.4	1160	1148	1132	0.468	0.437	0.409
x2 = 0.7203	882.8	878.2	873.7	1144	1132	1116	0.444	0.414	0.386
x2 = 0.801	888.9	884.2	879.3	1128	1116	1100	0.424	0.394	0.367
x2 = 0.8724	894.8	890	884.9	1116	1100	1084	0.407	0.382	0.359
x2 = 0.9399	901.3	896.4	891.1	1104	1088	1068	0.39	0.362	0.34
